# Assay results published in US8614203B2, “Methods for the treatment of a central nervous system injury via a tapered administration protocol” (Emory University, priority 2005, dated 2013).
# Experiments:
# [1] = tested on: bilateral contusions of the medial prefrontal cortex; experiment: Example 1: cell counts of Nissl-stained neurons (STR, GP, DMN, VMN) after TBI; assay type: in vivo, Sprague-Dawley rats; details: 4 mg/kg in peanut oil
# Description: (§1) Male Sprague-Dawley rats (300 g) were housed individually in wire cages and kept on a reverse light-dark cycle (0800-2000 h). […] All procedures involving animals conformed to guidelines set forth in the Guide for the Care and Use of Laboratory Animals (U.S. Department of Health and Human Services, Pub no. 85-23, 1985) and were approved by the Emory University Institutional Animal Care and Use Committee.
# Bilateral contusions of the medial prefrontal cortex were created by a pneumatic impactor device as previously described. Briefly, rats were given anesthetized with ketamine/xylazine (90 mg/kg; 10 mg/kg) and placed in a stereotaxic apparatus. A craniectomy (diameter 6 mm) was made over the midline of the prefrontal cortex with its center 1.5 mm AP to bregma. After removal of the bone, the tip of the impactor (diameter 5 mm) was moved to +3.0 mm AP; 1.0 mm ML (from bregma), and checked for adequate clearance. Trauma was produced by pneumatically activating the piston to impact −2.0 mm DV (from dura) at a velocity of 3 m/s with a brain contact time of 0.5 seconds. […]
# Cell counts were done on an Olympus BH-2 microscope equipped with an eyepiece micrometer grid (sample area=40 um^2 at ×400 magnification). […] Only cells with neuronal nuclei and intact membranes were counted as neurons.
# Experienced individuals who were blind to treatment conditions of the study conducted all histological and behavioral analyses. All data were tested for normality and homoschedasticity before being analyzed by parametric analysis of variance (ANOVA). MWM results were analyzed using separate mixed-factorial (4 groups×5 days) analysis of variance (ANOVA) on each of the two 5-day testing periods (acquisition and retention respectively). Results of the BSN task were analyzed using the mixed-factorial ANOVA (4 groups×2 post-injury trials). […] Pearson r coefficients were calculated to determine whether significant correlations could be detected between histological (e.g., lesion size and cellular density) and behavioral parameters (e.g., acquisition and retention of the MWM task and measures of sensory neglect).
# HSP70 = experiment: Example 3: Western blot of brain tissue, HSP70; assay type: in vivo, Sprague-Dawley rats; details: TWI vs AWI vs VI, 3 weeks post-injury
# Description: (§2) Male Sprague-Dawley rats received either medial frontal cortex injury or sham surgery. Injections were given 1 and 6 hours post-injury, and every 24 hours for 7 days. Treatment groups (n=8) encompassed injured (I) and sham (S) acute withdrawal (AW), tapered withdrawal (TW) and vehicle (V) treatments. TW injections were progressively halved over the final two treatments. Behavioral testing was conducted post-surgery, mid- and post-withdrawal. Activity boxes were used to investigate vertical movements and exploration: Sensory neglect and anxiety behaviors were also analyzed. Brain harvesting was performed at 8 days or 3 weeks post-injury. Perfused tissue sections were analyzed for lesion volume and immunohistochemical response. Fresh brain tissue was flash frozen in chilled 2-methyl butane, and then homogenized for Western blot analysis.
# [2] = tested on: bilateral contusions of the medial prefrontal cortex; experiment: Example 1: Morris water maze (MWM) task after TBI; assay type: in vivo, Sprague-Dawley rats
# Description: as §1
# Bilateral contusions of the medial prefrontal cortex were created by a pneumatic impactor device as previously described. Briefly, rats were given anesthetized with ketamine/xylazine (90 mg/kg; 10 mg/kg) and placed in a stereotaxic apparatus. A craniectomy (diameter 6 mm) was made over the midline of the prefrontal cortex with its center 1.5 mm AP to bregma. After removal of the bone, the tip of the impactor (diameter 5 mm) was moved to +3.0 mm AP; 1.0 mm ML (from bregma), and checked for adequate clearance. Trauma was produced by pneumatically activating the piston to impact −2.0 mm DV (from dura) at a velocity of 3 m/s with a brain contact time of 0.5 seconds.
# Control animals received injections of vehicle at similar time-points. Animals were coded with regard to surgery and treatment to prevent experimenter bias during behavioral testing and histological examination.
# Experienced individuals who were blind to treatment conditions of the study conducted all histological and behavioral analyses. All data were tested for normality and homoschedasticity before being analyzed by parametric analysis of variance (ANOVA). MWM results were analyzed using separate mixed-factorial (4 groups×5 days) analysis of variance (ANOVA) on each of the two 5-day testing periods (acquisition and retention respectively). Results of the BSN task were analyzed using the mixed-factorial ANOVA (4 groups×2 post-injury trials). Histological comparisons on mean densitometry recordings, area measurements, and cell counts were made using a one-way ANOVA. All between-group comparisons were made using multiple Tukey post-hoc tests (p<0.05) when the overall ANOVA was significant ([…]) between groups. Pearson r coefficients were calculated to determine whether significant correlations could be detected between histological (e.g., lesion size and cellular density) and behavioral parameters (e.g., acquisition and retention of the MWM task and measures of sensory neglect).
# Beginning one week after surgery, spatial learning ability was assessed in the Morris water maze (MWM) task described previously. […] Animals were placed in the pool (nose facing the pool-wall) at one of four randomly determined starting positions (e.g.: N, S, E, W). […] Swim speed measures were recorded daily in order to delineate motor dysfunction from learning impairment.
# traumatic brain injury [3] = experiment: Example 2: dose response, sticker removal task (sensory neglect) after TBI, cyclodextrin vehicle; assay type: in vivo
# Description: […] Pairs of circular adhesive papers (2 cm dia) were attached to the distal-radial areas of each forepaw and the rats' latencies to remove the stimuli were recorded. Each rat was given four trials (2-min ITI) per testing period with a maximum trial length of 2 minutes.
# (§3) Surgery to induce a traumatic brain injury was performed as outlined in Example 1. Behavior testing using the Morris Water Maize was performed as outlined in Example 1 and the methods for the tactical adhesive removal were performed.
# [4] = tested on: medial frontal cortex injury or sham surgery; experiment: Example 3: behavioral testing (anxiety, locomotor, sensory neglect), acute vs tapered withdrawal; assay type: in vivo, Sprague-Dawley rats
# Description: as §2
# contusion injury = details: following a contusion injury (Roof et al. 1994); cited from earlier work
# traumatic brain injury [5] = experiment: Example 2: dose response, Morris water maze after TBI, cyclodextrin vehicle; assay type: in vivo
# Description: Beginning one week after surgery, spatial learning ability was assessed in the Morris water maze (MWM) task described previously. Each animal was tested for a total of 10 days in two 5-day trial blocks (acquisition and retention respectively). Animals were placed in the pool (nose facing the pool-wall) at one of four randomly determined starting positions (e.g.: N, S, E, W). Each rat was allowed to swim freely in the pool until it found the hidden platform or until 90 seconds had elapsed. […] Once on the platform, animals were allowed to rest for 10 seconds and then removed from the pool and placed near a heat lamp for warmth. Each rat was given two trials per day with a 20-second intertrial interval (ITI). The dependent measures for this task were latency to find the hidden platform and swim strategy (e.g., percent of time spent in the inner vs. outer annuli). Swim speed measures were recorded daily in order to delineate motor dysfunction from learning impairment.
# as §3
# [6] = tested on: p53, active Caspase 3, TNFα and NFκB; experiment: Example 3: Western blot of apoptotic and inflammatory proteins; assay type: in vivo, Sprague-Dawley rats
# Description: as §2
# BDNF = experiment: Example 3: Western blot of brain tissue, BDNF; assay type: in vivo, Sprague-Dawley rats; details: TWI vs AWI vs VI, 3 weeks post-injury
# Description: as §2
smiles,measurement,setting,value
"CC(=O)[C@H]1CC[C@H]2[C@@H]3CCC4=CC(=O)CC[C@]4(C)[C@H]3CC[C@]12C [progesterone, pregn-4-ene-3,20-dione]","injury-induced neuronal loss (mean cellular density STR, GP, DMN, VMN)",[1]; 3 days (LP3),significant reduction of injury-induced neuronal loss in all brain regions examined
same,"injury-induced neuronal loss (mean cellular density STR, GP, DMN, VMN)",[1]; 5 days (LP5),significant reduction of injury-induced neuronal loss in all brain regions examined
same,"neuronal loss in the VMN, 5 days vs 3 days of treatment",[1]; 5 days compared with 3 days,more effective than 3 days at attenuating neuronal loss in the VMN
same,HSP70 expression,HSP70,increased for TWI over AWI over VI at 3 weeks post-injury
same,"MWM spatial learning performance, second 5-day trial block (retention)","[2]; 4 mg/kg in peanut oil, 5 days (LP5)",improved spatial learning performance
same,"MWM spatial learning performance, initial 5-day acquisition phase","[2]; 4 mg/kg in peanut oil, LP3 and LP5 (all injured groups)",deficits in spatial learning performance as compared to control animals
same,thigmotaxic (wall-hugging) swim patterns in MWM,"[2]; 4 mg/kg, 5 days (LP5), last 2 days of second phase of MWM testing",reduction of thigmotaxic behavior
same,swim speed in MWM,"[2]; 4 mg/kg, LP3 and LP5, any day of testing",no between-group differences on swim speed measurements
same,"sticker removal task (sensory neglect), initial","traumatic brain injury [3]; all doses (8, 16, 32 mg/kg), initially",initially produce behavioral recovery
same,"sticker removal task (sensory neglect), later course",traumatic brain injury [3]; high dose (32 mg/kg),degraded to lesion control levels
same,"sticker removal task (sensory neglect), later course","traumatic brain injury [3]; moderate dose (16 mg/kg), day 21 post-injury",improved to sham levels by day 21 post-injury
same,"anxiety, locomotor and sensory deficits","[4]; injured (AWI) vs tapered withdrawal, injured (TWI)","increase anxiety, locomotor and sensory deficits compared to tapered progesterone withdrawal"
same,behavioral impairments one week after peak of withdrawal,"[4]; injured (AWI), one week later",increased behavioral impairments are still evident in AWI animals
same,motor impairments,[4]; shams (AWS) vs other shams,increased motor impairments compared to all other shams
same,anxiety,[4]; shams (AWS) vs tapered progesterone rats,increased anxiety compared to tapered progesterone rats
same,post injury cerebral edema,contusion injury,reduces the severity of post injury cerebral edema
same,Morris water maze performance,traumatic brain injury [5]; high dose 32 mg/kg in a cyclodextrin-containing vehicle,did not show any beneficial effect
same,Morris water maze performance,traumatic brain injury [5]; low dose 8 mg/kg in a cyclodextrin-containing vehicle,consistent improvement in Morris water maze performance
same,Morris water maze performance,traumatic brain injury [5]; moderate dose 16 mg/kg in a cyclodextrin-containing vehicle,consistent improvement in Morris water maze performance
same,"expression of apoptotic and inflammatory proteins, outcome vs vehicle",[6]; all progesterone treatments (acute and tapered) vs vehicle-only controls,all progesterone treatments led to better outcomes compared to vehicle-only controls
same,"apoptosis and inflammation (p53, active Caspase 3, TNFα, NFκB)",[6]; tapered withdrawal (TW),decreased with TW
same,BDNF expression,BDNF,increased for TWI over AWI over VI at 3 weeks post-injury
